Laboratory results reported in patent publication US20240325406A1, “ANTIBACTERIAL COMPOSITIONS” (Wockhardt Limited, priority 2016, published 2024).

Columns and labels:
Experiment in all cases: Quantitative drug diffusion (disc) assay per CLSI, zone of inhibition
Format in all cases: cell-based
Set-up in all cases: key to CLSI susceptibility interpretation: (R): Resistant;; (I): Intermediate;; (S): Sensitive (Interpretation as per CLSI recommendations, 2010)
E. coli M-138 = test system: E. coli M-138
Text: (§1) Antibacterial activity of cefepime combination with tazobactam against various bacterial strains, including those bacteria that are known to product one or more beta-lactamase, was investigated in quantitative drug diffusion assay performed as per CLSI recommendations (Clinical and Laboratory Standards Institute (CLSI), performance Standards for Antimicrobial Susceptibility Testing, 20th Informational Supplement, M 100-S20, Volume 30, No. 1, 2010).
(§2) In a typical study, overnight grown bacterial cultures after appropriate dilution were seed inoculated in the molten, cooled agar media and plates poured. Antibacterial agents containing 6 mm diameter discs were placed on the top of the agar surface. Zone of inhibition based observation was performed after 16 to 18 hours of incubation at 35±2° C. in ambient air. These assays are routinely used in determining possibility of treating a particular infection using given antibacterial agent or a composition. In general, zone inhibition values in the sensitive(S) range indicate that the strain is susceptible to that antibacterial agent or composition. It is generally assumed that the antibacterial agent or the combination under consideration would not be effective in treating the infection, if the zone inhibition values are in the resistant (R) range.

E. coli M50 = test system: E. coli M50
Text: as §1, §2

E. coli B-123 = test system: E. coli B-123
Text: as §1, §2

E. coli B-89 = test system: E. coli B-89
Text: as §1, §2

E. coli S-112 = test system: E. coli S-112
Text: as §1, §2

E. coli 7MP = test system: E. coli 7MP
Text: as §1, §2

[1] = 6 mm discs, 16 to 18 hours at 35±2° C., tazobactam 10 mcg in the combination
[2] = interpretation of zone of inhibition

For `CO/N=C(\C(=O)N[C@@H]1C(=O)N2C(C(=O)[O-])=C(C[N+]3(C)CCCC3)CS[C@H]12)c1csc(N)n1` [Cefepime, cefepime], the “Zone of Inhibition” value (E. coli M-138; [1]) was “Nil”, the CLSI susceptibility interpretation (E. coli M-138; [2]) was “R” and the “Zone of Inhibition” value (E. coli M50; [1]) was 7.5 mm. The CLSI susceptibility interpretation (E. coli M50; [2]) was “R”, the “Zone of Inhibition” value (E. coli B-123; [1]) was 8 mm and the CLSI susceptibility interpretation (E. coli B-123; [2]) was “R”. For the same compound, the “Zone of Inhibition” value (E. coli B-89; [1]) was 8 mm, the CLSI susceptibility interpretation (E. coli B-89; [2]) was “R” and the “Zone of Inhibition” value (E. coli S-112; [1]) was 17 mm. The CLSI susceptibility interpretation (E. coli S-112; [2]) was “I”, the “Zone of Inhibition” value (E. coli 7MP; [1]) was 16 mm and the CLSI susceptibility interpretation (E. coli 7MP; [2]) was “I”.
